Results taken from paper PMC5672024, “Selective Glucocorticoid Receptor Properties of GSK866 Analogs with Cysteine Reactive Warheads” (Frontiers in Immunology, 2017).

Tests used:
[1] = tested on: GR transactivation, p(GRE)2-50-luc reporter in HaCat cells; test: p(GRE)2-50-luc reporter gene assay (GR transactivation); format: cell-based; settings: 6 h; for GR transactivation in GRE-luc reporter: concentration range 10^−6–10^−10 M
Description: (§1) In order to compare transactivation and transrepression potencies of the different synthesized GSK866 analogs, we performed GRE- and NFκB-luciferase-dependent reporter gene studies in stable transfected cell lines, as previously described ([3], [8]). HaCat cells expressing p(GRE)2 50-Luc and L929sA cells expressing p(GRE)250-Luc or p(NFκB)350-Luc were cultured in DMEM medium with 1% L-glutamine, supplemented with 10% feral bovine serum (FBS), 100 µg/ml streptomycin, and 100 IU/mL penicillin in a humidified 5% CO2 atmosphere. Cells were passaged every 2 days at a dilution of 1:6. Reporter gene cells were plated at a density of 0.5 × 10^5 cells/well in 24 well plates and grown overnight. p(GRE)250-Luc-dependent reporter gene cells were treated with solvent (DMSO) or compound (100 fM, 1 nM, 10 nM, 100 nM, and 1 µM) for 6 h, whereas in case of p(NFκB)350-Luc, TNF (2,500 IU/mL) was added 2 h following compound treatment. After incubation with the compounds, medium was removed and cells were washed twice with PBS followed by adding 100 µl of 1× lysis buffer (0.2 M K2HPO4, 0.2 M KH2PO4, Triton X-100, pH 7.6). 25 µl of lysate was assayed for luciferase activity by adding 50 µl of luciferase assay substrate (1 mM luciferin or luciferin salt, 3 mM ATP, and 15 mM MgSO4 in 30 mM HEPES buffer, pH 7.8) followed by 10 s mixing and measuring 1 s bioluminescence using an Envision multilabel reader (Perkin Elmer).
(§2) Figure 3 Selective glucocorticoid receptor agonist GSK866 analogs UAMC-1217, UAMC-1218 but not UAMC-1158 and UAMC-1159 elicit selective glucocorticoid receptor-transactivation and NFκB-transrepression properties. Glucocorticoid response element (GRE)- and NFκB-luciferase-dependent reporter gene assays were performed in L929sA and HaCat reporter cells which were stably transfected with, respectively, p(NFκB)3-50luc or p(GRE)2-50-luc constructs. For p(GRE)2-50-luc reporter assays, cells were solvent-treated or induced with different concentrations of Dex (A), Dex-mesylate (Dex-Mes) (A), SEGRA GSK866 (C) or analogs UAMC-1158 (D), UAMC-1159 (E), UAMC-1217 (F), and UAMC-1218 (G) as indicated for a total exposure time of 6 h, whereas cells were cotreated for TNF (2,500 IU/ml) in the last 4 h for p(NFkB)3-50luc reporter assays (B–G). Corresponding lysates were assayed for luciferase activities and normalized for protein content as described in the Section “Materials and Methods.” Promoter activities are expressed as relative induction factor (± standard deviation) i.e., the ratio of expression levels recorded either at induced and non-induced conditions, with the latter taken to be 1.

[2] = tested on: TNF-induced NFκB reporter gene activity in L929sA cells; test: p(NFκB)3-50luc reporter gene assay with TNF (NFκB transrepression); format: cell-based; settings: TNF 2,500 IU/ml; for NFκB transrepression in NFκB-luc reporter: dose range
Description: as §1, §2

[3] = tested on: GR nuclear translocation in A549 cells; test: Immunofluorescence of nuclear GR translocation in A549 cells; format: cell-based, human; settings: serum starved A549 cells, 1 µM, 30 min
Description: To detect endogenous GR in A549 cells, cells were grown in serum free media for 24 h followed by treatment with 1 µM of specific GR ligands. After 30 min of treatment, cells on the cover glass were fixed in 4% formaldehyde in phosphate-buffered saline (PBS), permeabilized with 0.3% Triton X-100–PBS, and then blocked in 5% milk, 10% FCS, 0.3% bovine serum albumin, and 0.3% Triton X-100 in PBS for 30 min at room temperature. Primary antibodies against anti GR-antibody (SantaCruz Biotechnology) were used at a dilution of 1:200. Nuclei were stained by DAPI and samples were analyzed using a confocal Leica LSM410 microscope. To quantify nuclear translocation of GR in a standardized manner, multichannel fluorescence images were analyzed using a script for FIJI image analysis freeware (http://fiji.sc) that is essentially based on a pipeline described before (CellBlocks.ijm) ([39]), and is available upon request. In brief, the analysis first segments nuclei in the Hoechst/DAPI channel and then uses the nuclear mask to define perinuclear cytoplasmic regions of interest (ROIs). Nuclei are detected after local contrast enhancement and Gaussian smoothing to, respectively, cover for spatial illumination heterogeneity and noise. After automatic thresholding (Isodata algorithm), touching nuclei are separated using a conditional watershed algorithm ([40]). Next, cytoplasmic ROIs are determined as concentric bands around the nuclei by Voronoi-restrained region growing ([41]). Finally, the average intensity of the GR channel is measured in both the nuclear and cytoplasmic ROIs and the nuclear-to cytoplasm signal intensity ratio (N/C Ratio) is calculated per cell (Figure S1 in Supplementary Material) ([42]).
Figure 6 Selective glucocorticoid receptor agonist GSK866 analogs UAMC-1217, UAMC-1218, but not UAMC-1158 and UAMC-1159 trigger nuclear glucocorticoid receptor (GR) translocation. (A) Serum starved A549 cells were left solvent treated or treated for 30 min with 1 µM Dex, Dex-mesylate (Dex-Mes), GSK866, UAMC-1158, UAMC-1159, UAMC-1217, or UAMC-1218. GR translocation was evaluated by immunofluorescence whereas nuclei were stained by DAPI dye. Magnification is at 100×. White scalebars represent […]. (B) Automated image quantification of GR translocation of three replicate immunofluorescence images of the different experimental setups.

[4] = tested on: GR; set-up: method as in PMID 27612544; settings: ref [14], cited from earlier work; for % inhibition of GR ligand binding: 1.5 nM [3H]-dexamethasone, 1 µM ligand; for IC50 / Ki: displacement of radiolabeled Dex; for IC50: read-out: IC50 (GR radioligand binding); for Ki: read-out: Ki (GR radioligand binding); for displacement of radiolabeled Dex: cell-based ligand-binding competition assay
[5] = tested on: GR Ser211 phosphorylation; test: Western blot of GR Ser211 phosphorylation; format: cell-based; settings: 1 µM, 6 h (UAMC-1158: Figure S2, 4 or 24 h)
Description: Whole cell extracts contain multiple protease inhibitors (Complete Mini®, Roche) and Halt phosphatase inhibitor cocktail (Thermoscientific). Soluble protein extracts were obtained after three times freeze and thaw cycles and centrifugation at […] for 15 min at 4°C. Samples were separated by sodium dodecyl sulfate-polyacrylamidegel electrophoresis (SDS-PAGE) and transferred onto nitrocellulose membranes (Hybond C, Amersham) following standard protocols. After blocking, membranes were incubated overnight at 4°C with the primary antibodies: anti-GR (sc-8992, SantaCruz Biotechnology), anti-phospho-GR Ser211 (4161, Cell Signalling) and anti-Actin (A3853, Sigma-Aldrich) followed by dye-conjugated secondary antibodies (LI-COR® Biosciences). Bound complexes were detected with the Odyssey® infrared imaging system (LI-COR®) and quantified by Image J software.
Figure 5 Selective glucocorticoid receptor agonist GSK866 and its analogs UAMC-1217, UAMC-1218 trigger glucocorticoid receptor (GR) Ser211 phosphorylation. (A) Western detection of expression levels of Actin, GR, and GR Ser S211 phosphorylation in HaCat cells following 6 h treatment with 1 µM Dex, UAMC-1217, UAMC-1218, or GSK866. (B) Bar plot representation of Western blot intensities of Actin, GR, and GR Ser S211 phosphorylation observed in panel A, as quantified by Image J. (C) Western detection of expression levels of Actin, GR expression, and Ser S211 phosphorylation in HaCat cells following 6 h treatment with, respectively, 10, 100, or 1,000 nM Dex or UAMC-1217. (D) Bar plot representation of Western blot intensities of Actin, GR, and GR Ser S211 phosphorylation observed in panel (C), as quantified by free Image J software.

[6] = tested on: GR; test: Cell-based GR ligand-binding competition assay with [3H]-dexamethasone; settings: from IC50 values of ligand displacement assays; ref [14]
[7] = tested on: recombinant GR-LBD (hGR); test: Mass spectrometry of tryptic peptides of recombinant GR-LBD after ligand incubation (covalent binding); set-up: species or system human; settings: 2 h at 37°C, trypsin digestion, LC-MS/MS
Description: Recombinant His6-MBP-mCaspase3 site-LBD-hGR was expressed in the Escherichia coli strain BL21codon + pICA2 that was transformed with the corresponding pLHM36LBD-hGR plasmid and in which expression was induced by Isopropyl β-D-1-thiogalactopyranoside (IPTG) under control of a pL-promotor. The transformed bacteria were grown in Luria Bertani medium supplemented with ampicillin (100 µg/ml) and kanamycin (50 µg/ml) overnight at 28°C before 1/100 inoculation in 12 × 0.5 l provided with Luria Bertani medium supplemented with ampicillin (100 µg/ml) and 1% glycerol in a shaker incubator. The cells were grown to an optical density at AU 600 nm of 0.65, transferred to 20°C and expression was induced by addition of 1 mM IPTG overnight. Cells were then harvested and frozen at −20°C. […] After thawing, the cells were re-suspended at 3 ml/g in cold 20 mM Tris-HCl pH 7.4, 200 mM NaCl, 1 mM EDTA, 1 tablet complete protease inhibitor cocktail from Roche/50 ml, and 10 mM β-mercaptoethanol. The cytoplasmic fraction was prepared by sonication of the cells on ice and isolated by centrifugation at 18,000 × g for 30 min. All further purification steps were conducted at 4°C. The clear supernatant was applied to an amylase column (BioLabs, XK26 × 20, 100 ml), equilibrated with 20 mM Tris–HCl pH 7.4, 200 mM NaCl, 1 mM EDTA, and 10 mM β-mercaptoethanol. The column was eluted with 20 mM Tris–HCl pH 7.4, 200 mM NaCl, 1 mM EDTA, 10 mM maltose, and 10 mM β-mercaptoethanol. […] Recombinant purified His-MBP-DEVD-GR-LBD fusion protein was dissolved at a concentration of 1 mg in 1.7 ml PBS buffer.
Each aliquot was incubated 2 h at 37°C. […] 120 µl of each sample was loaded onto a spin column and the flow-through was collected (1,500 × g, 2 min). Trypsin (5 µl of 20 mM stock solution) was added, and the samples were incubated 20 h at 37°C. Then, 0.1% FA (formic acid) (41.5 µl) and 20 mM TCEP in 0.1% FA (18.5 µl, 5.7 mg TCEP/ml) were added [final volume = 185 µl, final concentration TCEP = 2 mM, 1 µg material/2.5 μl], and the samples were subjected to LC–MS/MS analysis.
The obtained peptide mixtures were introduced onto an LC–MS/MS system; the Ultimate 3000 RSLC nano (Dionex, Amsterdam, The Netherlands) in-line connected to an LTQ-Orbitrap Velos (Thermo Fisher Scientific, Bremen, Germany). The sample mixture was loaded on a trapping column [made in-house, 100 µm internal diameter (I.D.) × 20 mm, 5 µm C18 beads (Reprosil-HD, Dr. Maisch)]. After back flushing from the trapping column, the sample was loaded on a reverse-phase column [made in-house, 75 µm I.D. × 150 mm, 5 µm C18 beads (Reprosil-HD, Dr. Maisch)].
The mass spectrometer was operated in data-dependent mode, automatically switching between MS and MS/MS acquisition for the 10 most abundant peaks in a given MS spectrum. […]

Row | Modifications: GR-LBD cysteine-containing peptide covalently bound [7] | Modifications: GR-LBD cysteine-containing peptide covalently bound ([7]; listed as 1218) | Structure (SMILES) | GR transactivation in GRE-luc reporter [1] | inhibition of TNF-induced NFκB reporter gene activity ([2]; 10 nM compound) | nuclear GR translocation [3] | % inhibition of GR ligand binding [4] [%] | IC50 [4] [nM] | Ki [4] [nM] | GR transactivation in GRE-luc reporter at 10 nM [1] | NFκB transrepression in NFκB-luc reporter [2] | GR Ser211 phosphorylation [5] | displacement of radiolabeled Dex [4] | fold lower GR-LBD affinity versus GSK866 [6] | inhibition at 0.01 µM ([2]; L929sA, 10 nM compound) [%]
1 | – | – | C[C@@H]1C[C@H]2[C@@H]3CCC4=CC(=O)C=C[C@]4(C)[C@@]3(F)[C@@H](O)C[C@]2(C)[C@@]1(O)C(=O)COS(C)(=O)=O [Dex-Mes, dexamethasone-21-mesylate, reference compound] | weaker dose-dependent GR-dependent transactivation than Dex | 40–45% | induce (partial) translocation of GR from the cytosol to the nucleus | 99 | 7.3 | 3.7 | – | – | – | – | – | –
2 | – | – | CCN(C[C@@](O)(CNC(=O)c1cnn(-c2ccc(F)cc2)c1N)C(F)(F)F)C(=O)c1c(Cl)cccc1Cl [GSK866] | strong GR agonistic activities | – | induce (partial) translocation of GR from the cytosol to the nucleus | 100 | 4.6 | 2.3 | significant GR transactivation | dose-dependent NFκB-transrepression effects | enhance the Ser211 phosphorylation | – | – | –
3 | – | – | CCN(C[C@@](O)(CNC(=O)c1cnn(-c2ccc(F)cc2)c1N)C(F)(F)F)C(=O)CCN1C(=O)C=CC1=O [UAMC-1158] | completely fail to elicit any GR transactivation at any dose tested | – | completely ineffective | −2 | – | – | – | completely ineffective | failed to show any change in GR phosphorylation status | failed to show displacement of radiolabeled Dex | – | –
4 | – | – | CCN(CC(O)(CNC(=O)c1cnn(-c2ccc(F)cc2)c1N)C(F)(F)F)C(=O)C1CCCN1C(=O)CCl (stereo not drawn) [UAMC-1159] | completely fail to elicit any GR transactivation at any dose tested | – | completely ineffective | −12 | – | – | – | completely ineffective | – | failed to show displacement of radiolabeled Dex | – | –
5 | Cys-622 | Peptide 615–633 → C622 | C=CC(=O)Nc1ccc(Cl)c(C(=O)N(CC)C[C@@](O)(CNC(=O)c2cnn(-c3ccc(F)cc3)c2N)C(F)(F)F)c1Cl [UAMC-1218] | – | – | induce (partial) translocation of GR from the cytosol to the nucleus | 96 | 34 | 17 | significantly reduced GR transactivation to levels below transactivation observed with 10 nM of Dex | dose-dependent NFκB-transrepression effects | enhance the Ser211 phosphorylation | – | approx. 5 fold | ~95
